Test results from ChEMBL document CHEMBL5370660, “Design of a Supersoft Topical JAK Inhibitor, Which Is Effective in Human Skin but Rapidly Deactivated in Blood” (J Med Chem, 2023).
Values after ≈ are worked out from the molar mass of the structure shown. Active and inactive are the calls of the source. No cut-off for these calls is given here.

Experiments:
JAK2/JAK1 = JAK2/JAK1 (Homo sapiens, UniProt O60674+P23458); assay: Inhibition of JAK1/2-mediated STAT1 phosphorylation in human M07E cells preincubated for 30 mins followed by IFN-alpha stimulation measured after 15 mins by flow cytometry; assay type: cell-based
JAK2/JAK1, sequence (P23458 whole entry): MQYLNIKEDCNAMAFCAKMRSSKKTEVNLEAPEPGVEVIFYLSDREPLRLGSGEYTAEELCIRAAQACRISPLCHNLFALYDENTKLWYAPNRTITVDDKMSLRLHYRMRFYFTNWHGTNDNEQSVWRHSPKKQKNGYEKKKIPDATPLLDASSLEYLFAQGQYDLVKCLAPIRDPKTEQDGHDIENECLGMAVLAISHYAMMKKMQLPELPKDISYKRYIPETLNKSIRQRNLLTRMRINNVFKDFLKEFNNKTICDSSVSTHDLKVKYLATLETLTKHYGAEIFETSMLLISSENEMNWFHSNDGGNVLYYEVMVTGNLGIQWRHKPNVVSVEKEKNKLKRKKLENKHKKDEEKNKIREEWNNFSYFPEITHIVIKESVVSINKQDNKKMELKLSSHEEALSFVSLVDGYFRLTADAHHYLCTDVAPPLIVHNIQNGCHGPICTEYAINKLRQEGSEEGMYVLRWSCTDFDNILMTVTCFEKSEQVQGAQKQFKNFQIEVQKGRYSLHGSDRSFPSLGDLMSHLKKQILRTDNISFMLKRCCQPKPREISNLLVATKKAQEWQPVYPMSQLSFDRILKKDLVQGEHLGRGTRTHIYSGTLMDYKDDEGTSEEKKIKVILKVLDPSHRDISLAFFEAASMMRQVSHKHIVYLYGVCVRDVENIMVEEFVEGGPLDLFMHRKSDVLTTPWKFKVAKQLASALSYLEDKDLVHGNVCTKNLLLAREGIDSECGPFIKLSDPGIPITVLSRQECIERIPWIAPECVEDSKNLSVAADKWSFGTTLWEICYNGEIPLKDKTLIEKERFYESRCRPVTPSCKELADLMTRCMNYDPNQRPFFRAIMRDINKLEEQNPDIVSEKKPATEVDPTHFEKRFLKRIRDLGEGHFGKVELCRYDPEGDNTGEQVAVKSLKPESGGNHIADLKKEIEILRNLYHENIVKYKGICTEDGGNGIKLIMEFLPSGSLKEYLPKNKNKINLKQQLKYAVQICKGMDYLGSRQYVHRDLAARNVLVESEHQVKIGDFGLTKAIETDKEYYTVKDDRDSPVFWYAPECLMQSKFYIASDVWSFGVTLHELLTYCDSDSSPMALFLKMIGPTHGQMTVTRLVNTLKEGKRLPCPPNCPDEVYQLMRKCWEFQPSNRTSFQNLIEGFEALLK
JAK2/JAK1, sequence (O60674 whole entry): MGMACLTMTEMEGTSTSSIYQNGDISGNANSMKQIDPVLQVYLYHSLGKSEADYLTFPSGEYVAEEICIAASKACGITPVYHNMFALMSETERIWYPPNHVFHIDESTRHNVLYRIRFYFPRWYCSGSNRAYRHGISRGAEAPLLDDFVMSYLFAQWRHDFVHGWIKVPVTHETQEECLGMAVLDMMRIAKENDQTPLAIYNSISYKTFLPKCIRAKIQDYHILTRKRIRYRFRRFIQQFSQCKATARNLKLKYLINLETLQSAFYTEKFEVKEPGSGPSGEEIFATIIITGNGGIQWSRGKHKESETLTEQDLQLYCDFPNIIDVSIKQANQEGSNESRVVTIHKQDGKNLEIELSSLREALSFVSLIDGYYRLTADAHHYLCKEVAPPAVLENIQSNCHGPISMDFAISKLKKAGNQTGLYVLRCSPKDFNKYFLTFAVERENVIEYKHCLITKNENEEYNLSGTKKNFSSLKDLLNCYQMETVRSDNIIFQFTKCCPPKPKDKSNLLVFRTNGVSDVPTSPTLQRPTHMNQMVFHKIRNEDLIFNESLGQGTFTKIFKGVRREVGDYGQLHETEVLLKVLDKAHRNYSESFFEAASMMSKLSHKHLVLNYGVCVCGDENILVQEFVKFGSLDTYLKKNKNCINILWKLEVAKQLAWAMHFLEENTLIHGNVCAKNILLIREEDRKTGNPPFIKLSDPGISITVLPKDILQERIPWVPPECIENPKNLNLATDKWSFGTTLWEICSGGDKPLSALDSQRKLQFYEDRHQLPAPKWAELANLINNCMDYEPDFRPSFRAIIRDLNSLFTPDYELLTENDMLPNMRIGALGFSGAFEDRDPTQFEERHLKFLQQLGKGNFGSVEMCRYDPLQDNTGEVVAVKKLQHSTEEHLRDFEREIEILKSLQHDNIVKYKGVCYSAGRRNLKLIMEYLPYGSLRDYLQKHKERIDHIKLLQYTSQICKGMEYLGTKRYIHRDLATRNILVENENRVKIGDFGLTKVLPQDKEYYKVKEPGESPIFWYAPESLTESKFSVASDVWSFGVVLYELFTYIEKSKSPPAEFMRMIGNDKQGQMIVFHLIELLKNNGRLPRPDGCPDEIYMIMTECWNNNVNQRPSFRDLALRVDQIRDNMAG

[1] = Stability in human whole blood assessed as half life at 1 uM incubated upto 8 hrs by LC-MS/MS analysis; assay type: ADME, tissue-based
[2] = Half life in human blood; assay type: ADME, tissue-based
[3] = Metabolic stability in human skin S9 fraction measured upto 120 mins by LC-MS analysis; assay type: ADME, subcellular
[4] = target: Tyrosine-protein kinase JAK2 (Homo sapiens, UniProt O60674); assay: Inhibition of GST-fused JAK2 (808 to 1132 residues)(unknown origin) using Carboxyfluorescein-Ahx-GGEEEEYFELVKKKK peptide as substrate incubated for 30 mins in presence of ATP by caliper microfluidic mobility shift assay
Tyrosine-protein kinase JAK2, sequence (O60674 whole entry, the tested form may be a part): as the sequence (O60674 whole entry) above

[5] = Stability of compound under light stress assessed as compound decomposition under sunlight with intensity of 4000 KJ/m2, irradiation of 250 W/m2, wavelength of >290 nm, temperature of 37 degreeC for 4 hrs using amorphous form of sample; assay type: ADME; conditions: read-out: Drug degradation
[6] = Lipophilicity, LogD of compound; assay type: physicochemical; conditions: octanol/water
[7] = Saturation solubility of compound in PEG400/transcutol/benzyl alcohol/water mixture using amorphous form of sample; assay type: physicochemical
[8] = Solubility of the compound at pH 6.8 using amorphous form of sample; assay type: physicochemical; conditions: buffer
JAK3/JAK1 [9] = target: T1, JAK3/JAK1 (Homo sapiens, UniProt P23458+P52333); assay: Inhibition of JAK1/3-mediated STAT5 phosphorylation in human M07E cells preincubated for 30 mins followed by IL-15 stimulation measured after 15 mins by flow cytometry; assay type: cell-based
T1 sequence (P23458 whole entry, one chain of several): as the sequence (P23458 whole entry) above

JAK3/JAK1 [10] = target: T1, JAK3/JAK1; assay: Inhibition of JAK1/3-mediated STAT5 phosphorylation in human whole blood incubated for 30 mins followed by IL-2 addition measured after 15 mins by flow cytometry; assay type: tissue-based
[11] = target: T2, Tyrosine-protein kinase JAK3 (Homo sapiens, UniProt P52333); assay: Inhibition of GST-fused JAK3 (811 to 1124 residues)(unknown origin) using Carboxyfluorescein-Ahx-GGEEEEYFELVKKKK peptide as substrate incubated for 30 mins in presence of ATP by caliper microfluidic mobility shift assay
T2 sequence (P52333 whole entry): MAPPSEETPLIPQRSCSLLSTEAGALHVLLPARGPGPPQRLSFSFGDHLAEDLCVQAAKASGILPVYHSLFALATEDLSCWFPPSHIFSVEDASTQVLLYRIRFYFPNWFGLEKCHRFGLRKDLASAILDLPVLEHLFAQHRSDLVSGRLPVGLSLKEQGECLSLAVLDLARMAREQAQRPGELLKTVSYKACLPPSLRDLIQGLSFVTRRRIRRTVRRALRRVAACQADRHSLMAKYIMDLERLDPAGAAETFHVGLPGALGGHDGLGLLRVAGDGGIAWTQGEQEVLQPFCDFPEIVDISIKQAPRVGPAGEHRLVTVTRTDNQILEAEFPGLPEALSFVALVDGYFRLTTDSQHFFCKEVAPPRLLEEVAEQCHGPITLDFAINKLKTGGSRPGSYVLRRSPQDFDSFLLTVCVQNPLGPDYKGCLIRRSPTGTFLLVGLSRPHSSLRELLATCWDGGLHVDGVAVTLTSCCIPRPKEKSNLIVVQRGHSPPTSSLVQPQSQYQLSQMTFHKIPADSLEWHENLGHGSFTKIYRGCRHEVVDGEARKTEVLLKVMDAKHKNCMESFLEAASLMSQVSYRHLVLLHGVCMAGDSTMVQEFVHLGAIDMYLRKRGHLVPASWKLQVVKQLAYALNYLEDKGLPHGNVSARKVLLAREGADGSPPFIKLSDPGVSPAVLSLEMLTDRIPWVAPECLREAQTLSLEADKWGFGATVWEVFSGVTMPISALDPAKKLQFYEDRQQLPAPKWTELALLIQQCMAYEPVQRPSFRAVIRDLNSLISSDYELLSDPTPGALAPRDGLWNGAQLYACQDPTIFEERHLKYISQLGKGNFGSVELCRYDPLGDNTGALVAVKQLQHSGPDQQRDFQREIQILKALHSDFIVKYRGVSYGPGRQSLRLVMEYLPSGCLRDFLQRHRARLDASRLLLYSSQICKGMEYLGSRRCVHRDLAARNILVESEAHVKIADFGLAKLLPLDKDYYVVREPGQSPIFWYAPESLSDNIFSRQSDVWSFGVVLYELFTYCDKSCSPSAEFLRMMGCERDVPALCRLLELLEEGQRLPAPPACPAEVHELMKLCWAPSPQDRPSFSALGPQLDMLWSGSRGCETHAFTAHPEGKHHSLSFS

[12] = target: Tyrosine-protein kinase JAK1 (Homo sapiens, UniProt P23458); assay: Inhibition of GST-fused JAK1 (866 to 1154 residues)(unknown origin) using FITC-Ahr-KKSRGDYMTMQIG-NH2 peptide as substrate incubated for 30 mins in presence of ATP by caliper microfluidic mobility shift assay
Tyrosine-protein kinase JAK1, sequence (P23458 whole entry, the tested form may be a part): as the sequence (P23458 whole entry) above

[13] = Stability of compound under temperature stress assessed as compound degradation at 50 degreeC measured after 7 days using amorphous form of sample; assay type: physicochemical; conditions: time 7 day; read-out: Drug degradation
[14] = (§1) Stability of compound in fresh human skin explant using Franz diffusion cell model assessed as compound concentration in dermis at 0.5 % administered topically preincubated overnight followed by fresh media replacement in receiver fluid without compound and subsequently stimulated with IL-4/IL-13 measured after 40 hrs by LC-MS/MS analysis; assay type: ADME, tissue-based, Skin of body; conditions: topical or ocular, read-out: Ct
Homo sapiens [15] = assay: Downregulation of GSVA score in human abdominal skin model at 0.2 % administered topically as cream treated for 24 hrs followed by removal of cream and stratum corneum and subsequently stimulated with IL-4/IL-13 measured after 3 hrs; assay type: functional, tissue-based; conditions: Abdomen skin, route top, time 27.0 hrs
[16] = Permeability of compound; assay type: ADME; conditions: not told; read-out: permeability
Homo sapiens [17] = assay: (§2) Inhibition of MMP12 gene expression in IL-4/IL-13-stimulated fresh human skin explant using Franz diffusion cell model at 0.5 % administered topically preincubated overnight followed by fresh media replacement in receiver fluid without compound and subsequently stimulated with IL-4/IL-13 measured after 24 hrs by RT-qPCR analysis; assay type: functional, tissue-based; conditions: Skin of body
Homo sapiens [18] = assay: as §2, with “TARC” for “MMP12”; assay type: functional, tissue-based; conditions: Skin of body
[19] = Saturation solubility of compound in PEG400/transcutol/benzyl alcohol/water mixture using crystalline form of sample; assay type: physicochemical
Homo sapiens [20] = assay: as §2, with “Eotaxin-3” for “MMP12”; assay type: functional, tissue-based; conditions: Skin of body
C-C motif chemokine 17 = target: T3, C-C motif chemokine 17 (Homo sapiens, UniProt Q92583); assay: Inhibition of TARC in human skin immersion culture at 10 uM preincubated for 3 hrs followed by IL-4/IL-13 stimulation measured after 18 hrs by MSD assay relative to control; assay type: tissue-based, Skin of body; conditions: time 21 hrs
T3 sequence (Q92583 whole entry): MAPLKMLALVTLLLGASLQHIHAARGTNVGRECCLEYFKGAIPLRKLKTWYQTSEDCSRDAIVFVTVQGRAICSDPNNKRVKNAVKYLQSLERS

[21] = as §1, with “Drug penetration” for “Stability of compound”, “receiver fluid” for “dermis”, “24” for “40”; assay type: ADME, tissue-based, Skin of body; conditions: artificial membrane
[22] = Thermodynamic solubility of the compound at pH 6.8 using crystalline form of sample; assay type: physicochemical; conditions: read-out: Therm_solubility
[23] = target: T4, Eukaryotic translation initiation factor 2-alpha kinase 3 (Homo sapiens, UniProt Q9NZJ5); assay: Inhibition of EIF2AK3 (unknown origin)
T4 sequence (Q9NZJ5 whole entry): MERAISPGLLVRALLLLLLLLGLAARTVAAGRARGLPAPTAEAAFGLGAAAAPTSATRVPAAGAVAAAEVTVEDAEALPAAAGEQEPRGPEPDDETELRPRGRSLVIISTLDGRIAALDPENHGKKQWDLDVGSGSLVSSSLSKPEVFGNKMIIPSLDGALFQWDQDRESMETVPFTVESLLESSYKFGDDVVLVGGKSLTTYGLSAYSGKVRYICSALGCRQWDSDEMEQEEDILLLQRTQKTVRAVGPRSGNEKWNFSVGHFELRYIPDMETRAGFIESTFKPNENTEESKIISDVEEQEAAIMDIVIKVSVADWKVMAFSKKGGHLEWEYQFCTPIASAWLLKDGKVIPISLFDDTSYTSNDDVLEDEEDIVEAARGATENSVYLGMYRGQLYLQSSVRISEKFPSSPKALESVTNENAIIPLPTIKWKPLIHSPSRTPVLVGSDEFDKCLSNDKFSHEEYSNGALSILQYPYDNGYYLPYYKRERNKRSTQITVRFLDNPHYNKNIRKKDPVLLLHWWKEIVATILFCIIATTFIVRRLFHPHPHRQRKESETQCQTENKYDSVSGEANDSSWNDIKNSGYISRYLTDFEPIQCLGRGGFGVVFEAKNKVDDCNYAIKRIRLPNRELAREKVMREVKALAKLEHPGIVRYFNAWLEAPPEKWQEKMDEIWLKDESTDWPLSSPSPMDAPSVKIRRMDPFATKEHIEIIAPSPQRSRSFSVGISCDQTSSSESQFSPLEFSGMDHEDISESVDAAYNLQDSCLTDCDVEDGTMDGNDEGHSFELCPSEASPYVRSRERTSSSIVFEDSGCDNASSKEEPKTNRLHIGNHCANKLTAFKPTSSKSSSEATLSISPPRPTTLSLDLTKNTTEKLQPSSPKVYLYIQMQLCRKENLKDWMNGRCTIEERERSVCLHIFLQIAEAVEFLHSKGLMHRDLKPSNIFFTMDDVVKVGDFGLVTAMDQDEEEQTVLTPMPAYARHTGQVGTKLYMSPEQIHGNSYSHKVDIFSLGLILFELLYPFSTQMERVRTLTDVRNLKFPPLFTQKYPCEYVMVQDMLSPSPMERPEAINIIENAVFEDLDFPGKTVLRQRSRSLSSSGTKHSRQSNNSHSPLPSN

[24] = target: Non-receptor tyrosine-protein kinase TYK2 (Homo sapiens, UniProt P29597); assay: Inhibition of GST-fused TYK2 (888 to 1187 residues)(unknown origin) using FITC-Ahr-KKSRGDYMTMQIG-NH2 peptide as substrate incubated for 30 mins in presence of ATP by caliper microfluidic mobility shift assay
Non-receptor tyrosine-protein kinase TYK2, sequence (P29597 whole entry, the tested form may be a part): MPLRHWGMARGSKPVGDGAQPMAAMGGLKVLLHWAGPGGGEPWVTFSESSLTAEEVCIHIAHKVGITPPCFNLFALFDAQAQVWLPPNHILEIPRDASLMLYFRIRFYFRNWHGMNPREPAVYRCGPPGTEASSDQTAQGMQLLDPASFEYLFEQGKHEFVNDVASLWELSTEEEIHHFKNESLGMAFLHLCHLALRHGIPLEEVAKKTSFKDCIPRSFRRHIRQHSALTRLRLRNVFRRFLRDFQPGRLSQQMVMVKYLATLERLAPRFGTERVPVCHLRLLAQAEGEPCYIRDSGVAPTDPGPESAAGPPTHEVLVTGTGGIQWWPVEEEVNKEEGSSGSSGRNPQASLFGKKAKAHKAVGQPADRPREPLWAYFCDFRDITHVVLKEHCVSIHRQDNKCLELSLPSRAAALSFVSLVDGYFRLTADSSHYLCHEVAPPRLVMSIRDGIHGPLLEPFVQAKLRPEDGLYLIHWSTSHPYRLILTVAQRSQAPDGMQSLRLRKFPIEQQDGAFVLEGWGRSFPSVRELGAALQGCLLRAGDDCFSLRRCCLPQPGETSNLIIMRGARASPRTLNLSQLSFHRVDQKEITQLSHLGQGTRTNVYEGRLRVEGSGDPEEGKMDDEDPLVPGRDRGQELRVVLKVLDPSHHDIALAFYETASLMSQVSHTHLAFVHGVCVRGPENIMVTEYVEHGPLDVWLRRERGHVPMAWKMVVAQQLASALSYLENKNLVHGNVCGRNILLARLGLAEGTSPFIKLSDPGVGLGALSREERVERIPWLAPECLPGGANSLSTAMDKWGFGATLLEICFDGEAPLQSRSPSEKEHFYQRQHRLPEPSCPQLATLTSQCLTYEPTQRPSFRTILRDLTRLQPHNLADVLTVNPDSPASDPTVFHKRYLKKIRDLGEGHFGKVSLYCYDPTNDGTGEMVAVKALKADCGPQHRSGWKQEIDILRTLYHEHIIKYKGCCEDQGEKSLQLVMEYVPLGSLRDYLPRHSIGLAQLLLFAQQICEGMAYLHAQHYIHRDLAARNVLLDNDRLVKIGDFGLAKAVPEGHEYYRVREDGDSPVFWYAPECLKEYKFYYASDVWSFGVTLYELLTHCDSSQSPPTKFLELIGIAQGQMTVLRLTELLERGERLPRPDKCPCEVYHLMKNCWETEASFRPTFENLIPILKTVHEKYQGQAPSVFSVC

[25] = target: T5, Mitogen-activated protein kinase kinase kinase 2 (Homo sapiens, UniProt Q9Y2U5); assay: Inhibition of MAP3K2 (unknown origin)
T5 sequence (Q9Y2U5 whole entry): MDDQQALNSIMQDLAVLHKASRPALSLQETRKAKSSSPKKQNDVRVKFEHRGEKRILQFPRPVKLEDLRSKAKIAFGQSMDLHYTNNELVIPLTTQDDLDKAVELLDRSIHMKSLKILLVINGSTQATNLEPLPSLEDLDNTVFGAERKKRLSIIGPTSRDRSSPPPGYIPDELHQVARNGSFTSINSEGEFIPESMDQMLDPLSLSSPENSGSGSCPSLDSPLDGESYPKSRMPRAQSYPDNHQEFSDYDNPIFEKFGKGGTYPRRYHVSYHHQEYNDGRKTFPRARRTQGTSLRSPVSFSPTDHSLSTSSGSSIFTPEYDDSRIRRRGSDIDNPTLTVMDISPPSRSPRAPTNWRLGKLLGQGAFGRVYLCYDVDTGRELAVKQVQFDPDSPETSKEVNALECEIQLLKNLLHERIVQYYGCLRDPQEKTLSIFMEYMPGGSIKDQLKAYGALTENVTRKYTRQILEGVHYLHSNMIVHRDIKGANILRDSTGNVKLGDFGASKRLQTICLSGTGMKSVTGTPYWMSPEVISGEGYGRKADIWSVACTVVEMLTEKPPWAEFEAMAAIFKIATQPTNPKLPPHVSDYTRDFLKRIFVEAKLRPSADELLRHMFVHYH

IC50 (JAK2/JAK1) | half-life at 1 µM [1] | half-life [3] | IC50 [4] | logD [6] | Papp [16] | SMILES | IC50 (JAK3/JAK1 [9]) | IC50 (JAK3/JAK1 [10]) | IC50 [11] | IC50 [12] | further results
71 nM | 4 min | 7 min | 5220 nM | – | – | CCOC(=O)Oc1cccc(Nc2cc(Nc3ccccc3Cl)c(C(N)=O)cn2)n1 | – | – | – | – | half-life [2]: ~4 min
85 nM | > 240 min | > 240 min | – | 4.4 | 6.7 ×10⁻⁶ cm/s | Cc1cccc(Nc2cc(Nc3ccccc3Cl)c(C(N)=O)cn2)n1 | – | – | – | – | concentration at 40 h, 0.5 % [14]: 33 µM; Activity (Homo sapiens [15]): Active; inhibition (Homo sapiens [17]): Active; inhibition (Homo sapiens [18]): Active; solubility thermodynamic [19]: 2800 µg/mL (≈ 7.91 mM); inhibition (Homo sapiens [20]): Active; inhibition at 10 µM (C-C motif chemokine 17): 100%; Drug uptake [21]: 0.004 µM; solubility thermodynamic [22]: 0.1 µg/mL (≈ 0.000283 mM)
> 10000 nM | > 240 min | < 240 min | 11 nM | 0.25 | 0.5 ×10⁻⁶ cm/s | COc1ccccc1Nc1cc(Nc2ccc(CC(=O)O)cn2)ncc1C(N)=O | 7020 nM | > 40000 nM | 10 nM | 5 nM | IC50 [23]: < 100 nM; IC50 [24]: 7 nM; IC50 [25]: < 100 nM

SMILES | IC50 (JAK2/JAK1) | half-life at 1 µM [1] | half-life [3] | IC50 [4] | logD [6] | Papp [16] | IC50 (JAK3/JAK1 [9]) | IC50 (JAK3/JAK1 [10]) | IC50 [11] | IC50 [12] | further results
COC(=O)Cc1ccc(Nc2cc(Nc3ccccc3Cl)c(C(N)=O)cn2)nc1 | 37 nM | 5 min | 12 min | 10 nM | 3.8 | – | 27 nM | 7850 nM | 13 nM | 9 nM | degraded at 4 h [5]: 7%; solubility thermodynamic [7]: 5400 µg/mL (≈ 13.1 mM); solubility [8]: 3 µg/mL (≈ 0.00728 mM); degraded at 168 h [13]: 11%
